# Test results: ChEMBL document CHEMBL5236589, “Design and Structural Optimization of Orally Bioavailable SOS1 Inhibitors for the Treatment of KRAS-Driven Carcinoma” (J Med Chem, 2022)
# pIC50: −log10 of the molar value. The source made the active and inactive calls. The calls are words filed in the database; no cut-off is given here.
# Assays:
# [1] = Toxicity in BALB/c mouse xenografted with human MIA PaCa-2 cells harboring KRAS G12C mutant assessed as mortality at 50 mg/kg, po once a day measured for 16 days; assay type: organism-based; details: in vivo, 384 h, time 16 day
# [2] = Elimination rate constant in ICR mouse at 20 mg/kg, po by LC-MS/MS analysis; assay type: ADME, organism-based; details: in vivo; for Kel: po, 20 mg/kg; for k el: ICR
# [3] = Cmax in ICR mouse at 20 mg/kg, po by LC-MS/MS analysis; assay type: ADME, organism-based; parameters: dose 20 mg/kg, route po; details: in vivo
# MIA PaCa-2 [4] = assay: In vivo antitumor activity against human MIA PaCa-2 cells harboring KRAS G12C mutant xenografted in BALB/c mouse assessed as reduction in tumor volume at 50 mg/kg, po once a day measured for 16 days relative to control; assay type: functional; parameters: scale not given: the % may be the effect or the level left; details: time 16 day
# [5] = MRT in ICR mouse at 20 mg/kg, po by LC-MS/MS analysis; assay type: ADME, organism-based; details: in vivo
# [6] = Tmax in ICR mouse at 20 mg/kg, po by LC-MS/MS analysis; assay type: ADME, organism-based; details: in vivo
# [7] = Toxicity in BALB/c mouse xenografted with human MIA PaCa-2 cells harboring KRAS G12C mutant assessed as change in body weight at 50 mg/kg, po once a day measured for 16 days; assay type: organism-based; details: in vivo, 384 h, time 16 day
# [8] = AUC in ICR mouse at 20 mg/kg, po by LC-MS/MS analysis; assay type: ADME, organism-based; parameters: dose 20 mg/kg, route po; details: in vivo
# [9] = Half life in ICR mouse at 20 mg/kg, po by LC-MS/MS analysis; assay type: ADME, organism-based; details: in vivo; for t1/2: po, 20 mg/kg; for half-life: ICR
# [10] = Inhibition of SOS1/KRAS G13D mutant protein-protein interaction in human DLD-1 cells assessed as ERK1/2 phosphorylation measured after 1 hr by homogeneous time-resolved fluorescence (HTRF) method; assay type: cell-based; details: DLD-1, 1 h
# SOS1-KRAS = SOS1-KRAS (Homo sapiens, UniProt Q07889); assay: Inhibition of human recombinant SOS1 (residue 564-1049)/KRAS G12C mutant protein-protein interaction at incubated for 25 degC for 60 mins by homogeneous time-resolved fluorescence (HTRF) method
# Chain of SOS1-KRAS (Q07889 whole entry, looked up, stated change not applied): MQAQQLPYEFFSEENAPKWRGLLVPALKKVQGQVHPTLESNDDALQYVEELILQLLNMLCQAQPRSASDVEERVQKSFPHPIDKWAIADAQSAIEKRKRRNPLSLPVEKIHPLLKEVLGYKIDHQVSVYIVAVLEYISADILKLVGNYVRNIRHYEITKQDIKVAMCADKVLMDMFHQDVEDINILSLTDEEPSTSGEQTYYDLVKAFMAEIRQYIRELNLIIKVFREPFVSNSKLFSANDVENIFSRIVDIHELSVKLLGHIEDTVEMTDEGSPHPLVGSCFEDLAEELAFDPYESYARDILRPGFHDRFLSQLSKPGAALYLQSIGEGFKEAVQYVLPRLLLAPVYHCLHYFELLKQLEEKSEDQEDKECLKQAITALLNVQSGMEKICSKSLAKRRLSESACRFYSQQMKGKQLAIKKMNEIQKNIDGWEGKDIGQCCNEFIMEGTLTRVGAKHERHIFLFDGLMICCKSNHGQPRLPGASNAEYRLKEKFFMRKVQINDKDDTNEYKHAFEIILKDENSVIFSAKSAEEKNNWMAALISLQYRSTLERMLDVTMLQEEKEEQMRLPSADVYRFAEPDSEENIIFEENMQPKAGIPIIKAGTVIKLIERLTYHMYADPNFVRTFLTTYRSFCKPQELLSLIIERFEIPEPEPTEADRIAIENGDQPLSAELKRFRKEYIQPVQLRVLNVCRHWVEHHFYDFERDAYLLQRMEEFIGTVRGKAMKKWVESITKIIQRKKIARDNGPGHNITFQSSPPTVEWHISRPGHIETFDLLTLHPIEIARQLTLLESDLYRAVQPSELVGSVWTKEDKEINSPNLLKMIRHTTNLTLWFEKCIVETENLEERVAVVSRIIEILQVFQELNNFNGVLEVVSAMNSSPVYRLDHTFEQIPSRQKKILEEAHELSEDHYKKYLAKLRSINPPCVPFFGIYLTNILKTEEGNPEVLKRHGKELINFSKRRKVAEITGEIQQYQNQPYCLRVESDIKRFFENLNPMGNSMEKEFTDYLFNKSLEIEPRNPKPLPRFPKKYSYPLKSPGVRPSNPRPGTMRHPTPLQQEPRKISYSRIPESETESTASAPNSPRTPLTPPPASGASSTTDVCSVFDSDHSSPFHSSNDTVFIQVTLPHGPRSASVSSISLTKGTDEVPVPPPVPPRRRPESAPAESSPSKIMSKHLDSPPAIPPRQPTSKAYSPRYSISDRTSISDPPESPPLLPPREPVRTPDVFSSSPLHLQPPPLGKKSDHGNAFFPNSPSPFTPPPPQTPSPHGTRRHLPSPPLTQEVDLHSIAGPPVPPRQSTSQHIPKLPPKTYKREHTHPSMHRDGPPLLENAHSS
# NCI-H358 = assay: Antiproliferative activity against human NCI-H358 cells harboring SOS1/KRAS G12C mutant measured after 24 hrs by AlamarBlue based 3-D proliferation assay; assay type: functional, cell-based
# [11] = Tmax in ICR mouse at 10 mg/kg, po by LC-MS/MS analysis; assay type: ADME, organism-based; details: in vivo
# [12] = MRT in ICR mouse at 10 mg/kg, po by LC-MS/MS analysis; assay type: ADME, organism-based; details: in vivo
# [13] = AUC in ICR mouse at 10 mg/kg, po by LC-MS/MS analysis; assay type: ADME, organism-based; parameters: dose 10 mg/kg, route po; details: in vivo
# [14] = Elimination rate constant in ICR mouse at 10 mg/kg, po by LC-MS/MS analysis; assay type: ADME, organism-based; details: in vivo
# MIA PaCa-2 [15] = assay: In vivo antitumor activity against human MIA PaCa-2 cells harboring KRAS G12C mutant xenografted in BALB/c mouse assessed as tumor growth inhibition at 50 mg/kg, po once a day measured for 16 days relative to control; assay type: functional; details: MIA PaCa-2, 384 h, time 16 day, read-out: TGI
# [16] = Half life in ICR mouse at 10 mg/kg, po by LC-MS/MS analysis; assay type: ADME, organism-based; details: in vivo
# [17] = Cmax in ICR mouse at 10 mg/kg, po by LC-MS/MS analysis; assay type: ADME, organism-based; parameters: dose 10 mg/kg, route po; details: in vivo
# [18] = Metabolic stability in mouse liver microsomes assessed as intrinsic clearance in presence of NADPH measured upto 60 mins by LC-MS/MS analysis; assay type: ADME, Microsome; details: read-out: CLH
# [19] = Metabolic stability in rat liver microsomes assessed as half life in presence of NADPH by LC-MS/MS analysis; assay type: ADME, Microsome
# [20] = Metabolic stability in rat liver microsomes assessed as intrinsic clearance in presence of NADPH measured upto 60 mins by LC-MS/MS analysis; assay type: ADME, Microsome; details: read-out: CLH
# [21] = Metabolic stability in mouse liver microsomes assessed as half life in presence of NADPH by LC-MS/MS analysis; assay type: ADME, Microsome
# MIA PaCa-2 [22] = assay: In vivo antitumor activity against human MIA PaCa-2 cells harboring KRAS G12C mutant xenografted in BALB/c mouse assessed as reduction in tumor volume at 50 mg/kg, po once a day measured for 16 days relative to BI-3406; assay type: functional; parameters: scale not given: the % may be the effect or the level left; details: time 16 day
# MIA PaCa-2 [23] = assay: Antiproliferative activity against human MIA PaCa-2 cells assessed as cell viability measured after 72 hrs by MTT assay; assay type: functional, cell-based; details: MIA PaCa-2, 72 h
smiles,measurement,setting,value
Cc1nc(N[C@H](C)c2cccc(C(F)F)c2F)c2cc3c(cc2n1)OC[C@H]1CN(C(=O)NC2CC2)CCN31,Activity,[1],Non-Toxic
same,Kel,[2],0.14 h⁻¹
same,Cmax,[3],557 ng/mL
same,Activity,MIA PaCa-2 [4],47%
same,MRT,[5],4.36 h
same,Tmax,[6],6 h
same,Activity,[7],Non-Toxic
same,AUC,[8],3490 ng·h/mL
same,t1/2,[9],12.6 h
same,pIC50,[10],8.10
CC(=O)N1CCN2c3cc4c(N[C@H](C)c5cccc(C(F)(F)CO)c5F)nc(C)nc4cc3OC[C@H]2C1,pIC50,SOS1-KRAS,8.57
same,Activity,NCI-H358,Active
same,pIC50,[10],8.85
CC(=O)N1CCN2c3cc4c(N[C@H](C)c5cccc(C(F)F)c5F)nc(C)nc4cc3OC[C@H]2C1,Tmax,[11],0.33 h
same,MRT,[12],1.9 h
same,k el,[2],0.000119 s⁻¹
same,Cmax,[3],270 ng/mL
same,AUC,[13],148 ng·h/mL
same,pIC50,SOS1-KRAS,8.20
same,MRT,[5],1.93 h
same,Tmax,[6],0.25 h
same,Activity,[7],Non-Toxic
same,k el,[14],0.000103 s⁻¹
same,inhibition in vivo at 50 mg/kg,MIA PaCa-2 [15],42%
same,half-life,[16],1.87 h
same,AUC,[8],601 ng·h/mL
same,half-life,[9],2.14 h
same,Cmax,[17],63.4 ng/mL
same,Activity,NCI-H358,Active
same,pIC50,[10],8.62
COc1cc2nc(C)nc(N[C@H](C)c3cc(N)cc(C(F)(F)F)c3)c2cc1O[C@H]1CCOC1,Tmax,[11],0.5 h
same,MRT,[12],1.7 h
same,CLint scaled,[18],504 mL/min/kg
same,Activity,[1],Non-Toxic
same,k el,[2],5.83e-05 s⁻¹
same,Cmax,[3],1050 ng/mL
same,half-life,[19],0.602 h
same,Activity,MIA PaCa-2 [4],42%
same,AUC,[13],550 ng·h/mL
same,MRT,[5],2.98 h
same,Tmax,[6],0.9 h
same,CLint scaled,[20],69.5 mL/min/kg
same,half-life,[21],0.18 h
same,Activity,[7],Non-Toxic
same,k el,[14],0.000147 s⁻¹
same,half-life,[16],1.3 h
same,AUC,[8],4680 ng·h/mL
same,half-life,[9],4.48 h
same,Cmax,[17],241 ng/mL
same,pIC50,[10],7.51
Cc1nc(N[C@H](C)c2cccc(C(F)F)c2F)c2cc3c(cc2n1)OC[C@H]1CN(C(=O)[C@H]2CCOC2)CCN31,CLint scaled,[18],209 mL/min/kg
same,Activity,[1],Non-Toxic
same,Kel,[2],0.25 h⁻¹
same,Cmax,[3],1550 ng/mL
same,half-life,[19],1.12 h
same,Activity,MIA PaCa-2 [4],49%
same,MRT,[5],4.19 h
same,Tmax,[6],3.67 h
same,CLint scaled,[20],37.2 mL/min/kg
same,half-life,[21],0.437 h
same,Activity,[7],Non-Toxic
same,Activity,MIA PaCa-2 [22],71%
same,AUC,[8],9900 ng·h/mL
same,t1/2,[9],11.4 h
same,pIC50,MIA PaCa-2 [23],6.75
same,pIC50,[10],8.30
CC(=O)N1CCN2c3cc4c(N[C@H](C)c5cc(N)cc(C(F)(F)F)c5)nc(C)nc4cc3OC[C@H]2C1,Tmax,[11],1 h
same,MRT,[12],10.1 h
same,AUC,[13],53.5 ng·h/mL
same,pIC50,SOS1-KRAS,8.37
same,k el,[14],0.000142 s⁻¹
same,half-life,[16],1.49 h
same,Cmax,[17],8.89 ng/mL
same,Activity,NCI-H358,Active
same,pIC50,[10],8.33
